Reference: patent publication US10668094B2, “Selective inhibitors of Alpha2-containing isoforms of Na,K-ATPase and use thereof for reduction of intraocular pressure” (Yeda Research and Development Co. Ltd., priority 2015, dated 2020)
“Also recorded” adds a separate entry of the source. Read-outs that look alike come from different tables or passages of the source.

Columns and labels:
[1] = biological target: human Na,K-ATPase α1β1FXYD1 (Homo sapiens (Human), UniProt P05023); assay type: biochemical; settings: for Ki: read-out: Ki in nM ± SEM α1β1
[2] = biological target: human Na,K-ATPase α2β3FXYD1 (Homo sapiens (Human), UniProt P50993+P54709); assay: biochemical; assay type: biochemical
[3] = tested on: human Na,K-ATPase α2β1FXYD1; assay type: biochemical
[4] = biological target: human Na,K-ATPase α2β1FXYD1 (Homo sapiens, UniProt P50993); assay type: biochemical; settings: read-out: Ki in nM ± SEM α2β1
[5] = biological target: human Na,K-ATPase α2β2FXYD1 (Homo sapiens (Human), UniProt P50993); assay type: biochemical; settings: for Ki: read-out: Ki in nM ± SEM α2β2
[6] = tested on: Na,K-ATPase isoforms α1, α2, α3; settings: cited from earlier work
[7] = tested on: 4AP-induced IOP in rabbits; assay type: in vivo, rabbit
[8] = tested on: basal IOP in rabbits; assay: Basal IOP in rabbits, topical administration; assay type: in vivo, rabbit; settings: for effect on lowering basal IOP: one drop of 1 mM solution, other eye PBS
[9] = tested on: Na,K-ATPase in bovine ciliary NPE cells; assay: biochemical; settings: 1 site model; read-out: Ki, nM ± SEM

Structure (SMILES): CC1CN(C2CCCCC2)CCC(O[C@@H]2C(C)O[C@@H](OC3C(C)OC(O[C@H]4CC[C@@]5(C)C(CCC6C5CC(O)[C@]5(C)[C@@H](C7=CC(=O)OC7)CC[C@]65O)C4)C[C@@H]3O)C[C@@H]2O)O1 (stereo in doubt) [DcH, 4-((3S,5R,8R,9S,10S,12R,13S,14S,17R)-3-(((2S,4S,5R,6R)-5-(((2S,4S,5S,6R)-5((4-cyclohexyl-2-methyl-1,4-oxazepan-7-yl)oxy)-4-hydroxy-6-methyltetrahydro-2H-pyran-2-yl)oxy)-4-hydroxy-6-methyltetrahydro-2H-pyran-2-yl)oxy)-12,14-dihydroxy-10,13-dimethylhexadecahydro-1H-cyclopenta[a]phenanthren-17-yl)furan-2(5H)-one]
- Ki [1]: 70.4 ± 4.1 nM
- Selectivity Ki ratio α1β1/α2β3 [2]: 10.1
- selectivity for α2β3 over α1β1 (Ki α1β1:α2β3 ratio) [2]: 10-12 fold
- Ki ([2]; read-out: Ki in nM ± SEM α2β3): 11.7 ± 4.5 nM
- Selectivity Ki ratio α1β1/α2β1 [3]: 4.6
- Ki [4]: 15.2 ± 3.7 nM
- Selectivity Ki ratio α1β1/α2β2 [5]: 4.6
- Ki [5]: 15.3 ± 2.9 nM

Structure (SMILES): C[C@H]1O[C@@H](O[C@H]2[C@@H](O)C[C@H](O[C@H]3[C@@H](O)C[C@H](O[C@H]4CC[C@@]5(C)[C@H](CC[C@@H]6[C@@H]5CC[C@]5(C)[C@@H](C7=CC(=O)OC7)CC[C@]65O)C4)O[C@@H]3C)O[C@@H]2C)C[C@H](O)[C@@H]1O [Digitoxin, digitoxin]
- lower Ki values for α2 compared to α1 [6]: 3-4 fold

Structure (SMILES): CC(C)CN1CCC(O[C@@H]2[C@H](C)O[C@@H](O[C@@H]3[C@H](C)O[C@@H](O[C@H]4CC[C@@]5(C)C(CCC6C5C[C@H](O)[C@]5(C)[C@@H](C7=CC(=O)OC7)CC[C@]65O)C4)C[C@@H]3O)C[C@@H]2O)OC(C)C1 (stereo partly drawn) [DiB]
- Ki [1]: 92 nM
- effect on 4AP-induced IOP ([7]; 10 μM): still effective
- Ki [4]: 20.6 ± 1.4 nM
- effect on lowering basal IOP [8]: lack of effect; also recorded: neither digoxin nor DiB had a significant effect

Structure (SMILES): CC1CN(Cc2ccccc2)CCC(O[C@@H]2[C@H](C)O[C@@H](O[C@@H]3[C@H](C)O[C@@H](O[C@H]4CC[C@@]5(C)C(CCC6C5C[C@H](O)[C@]5(C)[C@@H](C7=CC(=O)OC7)CC[C@]65O)C4)C[C@@H]3O)C[C@@H]2O)O1 (stereo partly drawn) [DBz, 4-(3S,5R,8R,9S,10S,12R,13S,14S,17R)-3-(((2S,4S,5R,6R)-5-(((2S,4S,5S,6R)-5 ((4-benzyl-2-methyl-1,4-oxazepan-7-yl)oxy)-4-hydroxy-6-methyltetrahydro-2H-pyran-2-ypoxy)-4-hydroxy-6-methyltetrahydro-2H-pyran-2-yl)oxy)-12,14-dihydroxy-10,13-dimethythexadecahydro-1H-cyclopenta[a]phenanthren-17-yl)furan-2(5H)-one]
- Ki [1]: 57.9 ± 15.5 nM
- Selectivity Ki ratio α1β1/α2β3 [2]: 10.3
- selectivity for α2β3 over α1β1 (Ki α1β1:α2β3 ratio) [2]: 10-12 fold
- Ki ([2]; read-out: Ki in nM ± SEM α2β3): 5.6 ± 1.6 nM
- Selectivity Ki ratio α1β1/α2β1 [3]: 5.7
- Ki [4]: 10.1 ± 2.2 nM
- Selectivity Ki ratio α1β1/α2β2 [5]: 8.5
- Ki [5]: 6.8 ± 1.2 nM

Structure (SMILES): CCCN1CCC(O[C@@H]2[C@H](C)O[C@@H](O[C@@H]3[C@H](C)O[C@@H](O[C@H]4CC[C@@]5(C)C(CCC6C5C[C@H](O)[C@]5(C)[C@@H](C7=CC(=O)OC7)CC[C@]65O)C4)C[C@@H]3O)C[C@@H]2O)OC(C)C1 (stereo partly drawn) [DP]
- Ki [1]: 87.7 ± 7.9 nM
- Selectivity Ki ratio α1β1/α2β3 [2]: 8.8
- Ki ([2]; read-out: Ki in nM ± SEM α2β3): 9.8 ± 1.1 nM
- Selectivity Ki ratio α1β1/α2β1 [3]: 4.8
- Ki [4]: 18.3 ± 1.68 nM
- Selectivity Ki ratio α1β1/α2β2 [5]: 8.3
- Ki [5]: 10.5 ± 1.8 nM

Structure (SMILES): CC1CN(C[Si](C)(C)C)CCC(OC2C(O)CC(OC3C(O)CC(OC4CCC5(C)C(CCC6C5CC(O)C5(C)C(C7=CC(=O)OC7)CCC65O)C4)OC3C)OC2C)O1 (stereo not drawn) [DTMS]
- Ki [1]: 72.6 ± 17.6 nM
- Selectivity Ki ratio α1β1/α2β3 [2]: 6.5
- Ki ([2]; read-out: Ki in nM ± SEM α2β3): 11.1 ± 1.6 nM
- Selectivity Ki ratio α1β1/α2β1 [3]: 3
- Ki [4]: 24.3 ± 4 nM
- Selectivity Ki ratio α1β1/α2β2 [5]: 5.1
- Ki [5]: 14.3 ± 1.3 nM

Structure (SMILES): CC1CN(CC2CC2)CCC(O[C@@H]2[C@H](C)O[C@@H](O[C@@H]3[C@H](C)O[C@@H](O[C@H]4CC[C@@]5(C)C(CCC6C5C[C@H](O)[C@]5(C)[C@@H](C7=CC(=O)OC7)CC[C@]65O)C4)C[C@@H]3O)C[C@@H]2O)O1 (stereo partly drawn) [DMcP]
- Ki for α1β1 lower than for digoxin [1]: 2-3 fold
- Ki [1]: 95.8 ± 13.7 nM
- Ki [2]: ~4 nM
- Ki for α2β3 lower than for digoxin [2]: about 10 fold
- Selectivity Ki ratio α1β1/α2β3 [2]: 22.2
- selectivity for α2β3 over α1β1 (Ki α1β1:α2β3 ratio) [2]: 22 fold
- Ki ([2]; read-out: Ki in nM ± SEM α2β3): 4.3 ± 0.6 nM
- concentration that prevents the 4AP-induced rise in IOP ([7]; one drop topically prior to 4AP): 0.01 mM
- Ki [9]: 7.9 ± 2.2 nM
- Selectivity Ki ratio α1β1/α2β1 [3]: 5.2
- Ki [4]: 18.3 ± 1.6 nM
- Selectivity Ki ratio α1β1/α2β2 [5]: 12
- Ki [5]: 8 ± 0.8 nM
- effect on lowering basal IOP [8]: notable effect
- reduction of basal IOP ([8]; rabbit with a basal IOP of 17 mm Hg): about 4 mm Hg
- reduction of basal IOP ([8]; topical, test period of 4-5 hours): 20-25%

Structure (SMILES): CC1CN(CCS(N)(=O)=O)CCC(O[C@@H]2C(C)O[C@@H](OC3C(C)OC(O[C@H]4CC[C@@]5(C)C(CCC6C5CC(O)[C@]5(C)[C@@H](C7=CC(=O)OC7)CC[C@]65O)C4)C[C@@H]3O)C[C@@H]2O)O1 (stereo in doubt) [DESA, 2-(7-(((2R,3S,4S,6S)-6-(((2R,3R,4S,6S)-6-(((3S,5R,8R,9S,10S,12R,13S,14S,17R)-12,14-dihydroxy-10,13-dimethyl-17-(5-oxo-2,5-dihydrofuran-3-yl)hexadecahydro-1H-cyclopenta[a]phenanthren-3-yl)oxy)-4-hydroxy-2-methyltetrahydro-2H-pyran-3-yl)oxy)-4-hydroxy-2-methyltetrahydro-2H-pyran-3-yl)oxy)-2-methyl-1,4-oxazepan-4-yl)ethanesulfonamide]
- Ki [1]: 301 ± 23 nM
- Selectivity Ki ratio α1β1/α2β3 [2]: 15
- Ki ([2]; read-out: Ki in nM ± SEM α2β3): 20.1 ± 0.9 nM
- Selectivity Ki ratio α1β1/α2β1 [3]: 7.7
- Ki [4]: 38.9 ± 2.2 nM
- Selectivity Ki ratio α1β1/α2β2 [5]: 9.5
- Ki [5]: 31.5 ± 4.4 nM

Structure (SMILES): CC1CN(C(C)(C)C)CCC(O[C@@H]2[C@H](C)O[C@@H](O[C@@H]3[C@H](C)O[C@@H](O[C@H]4CC[C@@]5(C)C(CCC6C5C[C@H](O)[C@]5(C)[C@@H](C7=CC(=O)OC7)CC[C@]65O)C4)C[C@@H]3O)C[C@@H]2O)O1 (stereo partly drawn) [DtB]
- Ki [1]: 135 nM
- Selectivity Ki ratio α1β1/α2β3 [2]: 8.2
- Ki ([2]; read-out: Ki in nM ± SEM α2β3): 16.3 ± 0.28 nM
- Selectivity Ki ratio α1β1/α2β1 [3]: 6.2
- Ki [4]: 21.6 ± 5.6 nM
- Selectivity Ki ratio α1β1/α2β2 [5]: 7.3
- Ki [5]: 18.4 ± 1.1 nM

Structure (SMILES): CC1CN(C)CCC(O[C@@H]2[C@H](C)O[C@@H](O[C@@H]3[C@H](C)O[C@@H](O[C@H]4CC[C@@]5(C)C(CCC6C5C[C@H](O)[C@]5(C)[C@@H](C7=CC(=O)OC7)CC[C@]65O)C4)C[C@@H]3O)C[C@@H]2O)O1 (stereo partly drawn) [DMe]
- Ki [1]: 103 ± 5.6 nM
- Selectivity Ki ratio α1β1/α2β3 [2]: 9.5
- Ki ([2]; read-out: Ki in nM ± SEM α2β3): 10.8 ± 0.6 nM
- Ki [9]: 15.6 ± 1.3 nM
- Selectivity Ki ratio α1β1/α2β1 [3]: 6.7
- Ki [4]: 15.3 ± 1.2 nM
- Selectivity Ki ratio α1β1/α2β2 [5]: 5.1
- Ki [5]: 20.4 ± 1.8 nM

Structure (SMILES): CC1CN(C2CC2)CCC(O[C@@H]2[C@H](C)O[C@@H](O[C@@H]3[C@H](C)O[C@@H](O[C@H]4CC[C@@]5(C)C(CCC6C5C[C@H](O)[C@]5(C)[C@@H](C7=CC(=O)OC7)CC[C@]65O)C4)C[C@@H]3O)C[C@@H]2O)O1 (stereo partly drawn) [DcP, 4-((3S,5R,8R,9S,10S,12R,13S,14S,17R)-3-(((2R,4S,5S,6R)-5-(((2S,4S,5S,6R)-5((4-cyclopropyl-2-methyl-1,4-oxazepan-7-yl)oxy)-4-hydroxy-6-methyltetrahydro-2H-pyran-2-yl)oxy)-4-hydroxy-6-methyltetrahydro-2H-pyran-2-yl)oxy)-12,14-dihydroxy-10,13-dimethythylhexadecahydro-1H-cyclopenta[a]phenanthren-17-yl)furan-2(5H)-one]
- Ki [1]: 109 ± 6.2 nM
- Selectivity Ki ratio α1β1/α2β3 [2]: 13.4
- Ki ([2]; read-out: Ki in nM ± SEM α2β3): 8.1 ± 1.36 nM
- Selectivity Ki ratio α1β1/α2β1 [3]: 7.5
- Ki [4]: 14.6 ± 11.6 nM
- Selectivity Ki ratio α1β1/α2β2 [5]: 8.5
- Ki [5]: 13 ± 1.3 nM

Structure (SMILES): C[C@H]1O[C@@H](O[C@H]2[C@@H](O)C[C@H](O[C@H]3[C@@H](O)C[C@H](O[C@H]4CC[C@@]5(C)[C@H](CC[C@@H]6[C@@H]5C[C@@H](O)[C@]5(C)[C@@H](C7=CC(=O)OC7)CC[C@]65O)C4)O[C@@H]3C)O[C@@H]2C)C[C@H](O)[C@@H]1O [Digoxin, digoxin, reference compound]
- Ki [9]: 91.7 ± 10.2 nM
- lower Ki values for α2 compared to α1 [6]: 3-4 fold
- effect on lowering basal IOP [8]: lack of effect; also recorded: neither digoxin nor DiB had a significant effect

Structure (SMILES): CC1CN(CS(C)(=O)=O)CCC(O[C@@H]2C(C)O[C@@H](OC3C(C)OC(O[C@H]4CC[C@@]5(C)C(CCC6C5CC(O)[C@]5(C)[C@@H](C7=CC(=O)OC7)CC[C@]65O)C4)C[C@@H]3O)C[C@@H]2O)O1 (stereo in doubt) [DMSM, 4-((3S,5R,8R,9S,10S,12R,13S,14S,17R)-12,14-dihydroxy-3-(((2S,4S,5R,6R)-4-hydroxy-5-(((2S,4S,5S,6R)-4-hydroxy-6-methyl-5-((2-methyl-4-((methylsulfonyl)methyl)-1,4-oxazepan-7-yl)oxy)tetrahydro-2H-pyran-2-yl)oxy)-6-methyltetrahydro-2H-pyran-2-yl)oxy)-10,13-dimethylhexadecahydro-1H-cyclopenta[a]phenanthren-17-yl)furan-2(5H)-one]
- Ki [1]: 944 ± 123 nM
- Selectivity Ki ratio α1β1/α2β3 [2]: 10.6
- Ki ([2]; read-out: Ki in nM ± SEM α2β3): 89 nM
- Selectivity Ki ratio α1β1/α2β1 [3]: 6.9
- Ki [4]: 137 ± 9.8 nM
- Selectivity Ki ratio α1β1/α2β2 [5]: 7.7
- Ki [5]: 123 ± 7.3 nM
